Reference: US12157741B2, “Macrocyclic inhibitors of DYRK1A” (DANA-FARBER CANCER INSTITUTE, INC., priority 2018, dated 2024)
Where two headings read alike, the source gives them in different places.

What was measured:
Type in all cases: binding
various enzymes [1] = molecular target: various enzymes (Homo sapiens, UniProt P49841); conditions: compound 1 uM
Method: (§1) Ambit profiling was conducted in accordance with the manufacturer's instructions.

various enzymes [2] = molecular target: various enzymes (Homo sapiens, UniProt P36888, R834Q)
Method: as §1

various enzymes [3] = molecular target: various enzymes (Homo sapiens, UniProt P36888, N841I); conditions: compound 1 uM
Method: as §1

various enzymes [4] = molecular target: various enzymes (Homo sapiens, UniProt Q86UE8); conditions: compound 1 uM
Method: as §1

various enzymes [5] = molecular target: T1, various enzymes (Homo sapiens, UniProt Q99640); conditions: compound 1 uM
T1 sequence (Q99640 1-499): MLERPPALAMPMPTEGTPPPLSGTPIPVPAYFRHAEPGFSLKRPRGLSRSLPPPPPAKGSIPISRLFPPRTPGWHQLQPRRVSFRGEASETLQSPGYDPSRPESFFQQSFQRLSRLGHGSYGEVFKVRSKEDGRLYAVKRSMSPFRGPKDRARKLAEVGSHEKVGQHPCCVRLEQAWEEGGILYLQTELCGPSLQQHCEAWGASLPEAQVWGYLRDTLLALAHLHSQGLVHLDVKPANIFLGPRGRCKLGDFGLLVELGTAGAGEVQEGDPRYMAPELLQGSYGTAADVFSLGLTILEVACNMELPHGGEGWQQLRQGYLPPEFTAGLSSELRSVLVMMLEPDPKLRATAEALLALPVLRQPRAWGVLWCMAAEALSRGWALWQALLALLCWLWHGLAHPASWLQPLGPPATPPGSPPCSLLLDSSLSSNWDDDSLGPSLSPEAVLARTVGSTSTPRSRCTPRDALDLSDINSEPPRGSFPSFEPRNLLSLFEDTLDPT
Method: as §1

various enzymes [6] = molecular target: various enzymes (Homo sapiens, UniProt O14936); conditions: compound 1 uM
Method: as §1

various enzymes [7] = molecular target: various enzymes (Homo sapiens, UniProt O14965); conditions: compound 1 uM
Method: as §1

various enzymes [8] = molecular target: various enzymes (Homo sapiens, UniProt Q15303); conditions: compound 1 uM
Method: as §1

various enzymes [9] = molecular target: various enzymes (Homo sapiens, UniProt Q8N752); conditions: compound 1 uM
Sequence of various enzymes (Homo sapiens, UniProt Q8N752) (Q8N752 whole entry): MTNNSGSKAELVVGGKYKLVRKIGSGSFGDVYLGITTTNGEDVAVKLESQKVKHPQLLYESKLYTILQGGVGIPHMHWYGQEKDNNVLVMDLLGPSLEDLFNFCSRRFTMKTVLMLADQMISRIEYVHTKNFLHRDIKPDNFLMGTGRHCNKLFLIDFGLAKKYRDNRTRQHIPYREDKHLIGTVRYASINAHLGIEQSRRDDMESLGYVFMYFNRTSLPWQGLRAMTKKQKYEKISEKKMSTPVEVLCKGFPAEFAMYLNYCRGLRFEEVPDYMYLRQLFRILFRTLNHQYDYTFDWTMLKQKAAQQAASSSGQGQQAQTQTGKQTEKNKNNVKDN
Method: as §1

various enzymes [10] = molecular target: various enzymes (Homo sapiens, UniProt P51817); conditions: compound 1 uM
Method: as §1

various enzymes [11] = molecular target: various enzymes (Homo sapiens, UniProt Q08345); conditions: compound 1 uM
Sequence of various enzymes (Homo sapiens, UniProt Q08345) (Q08345 19-913): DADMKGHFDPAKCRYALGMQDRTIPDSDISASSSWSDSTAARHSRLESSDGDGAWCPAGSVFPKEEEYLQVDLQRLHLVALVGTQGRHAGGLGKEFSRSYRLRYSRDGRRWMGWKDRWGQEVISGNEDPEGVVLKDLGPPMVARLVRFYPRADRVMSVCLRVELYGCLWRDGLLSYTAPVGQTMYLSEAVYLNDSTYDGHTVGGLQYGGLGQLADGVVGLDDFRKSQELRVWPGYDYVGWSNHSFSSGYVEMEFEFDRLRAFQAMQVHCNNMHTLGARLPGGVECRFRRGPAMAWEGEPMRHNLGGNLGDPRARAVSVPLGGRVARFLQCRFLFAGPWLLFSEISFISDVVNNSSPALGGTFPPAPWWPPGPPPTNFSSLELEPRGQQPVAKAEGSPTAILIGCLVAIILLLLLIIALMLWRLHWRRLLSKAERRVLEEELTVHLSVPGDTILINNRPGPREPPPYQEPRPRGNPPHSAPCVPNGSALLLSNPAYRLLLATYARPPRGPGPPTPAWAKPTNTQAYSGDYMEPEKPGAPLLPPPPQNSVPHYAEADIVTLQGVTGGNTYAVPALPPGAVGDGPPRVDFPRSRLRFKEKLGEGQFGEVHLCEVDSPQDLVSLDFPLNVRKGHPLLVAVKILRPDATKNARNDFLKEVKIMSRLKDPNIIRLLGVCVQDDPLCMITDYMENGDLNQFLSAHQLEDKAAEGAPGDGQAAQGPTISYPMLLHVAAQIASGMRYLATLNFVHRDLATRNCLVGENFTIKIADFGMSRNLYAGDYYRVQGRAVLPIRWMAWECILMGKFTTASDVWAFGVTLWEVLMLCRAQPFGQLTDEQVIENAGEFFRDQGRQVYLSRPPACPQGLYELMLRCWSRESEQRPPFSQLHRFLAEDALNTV
Method: as §1

various enzymes [12] = molecular target: various enzymes (Homo sapiens, UniProt P22607); conditions: compound 1 uM
Sequence of various enzymes (Homo sapiens, UniProt P22607) (P22607 23-806): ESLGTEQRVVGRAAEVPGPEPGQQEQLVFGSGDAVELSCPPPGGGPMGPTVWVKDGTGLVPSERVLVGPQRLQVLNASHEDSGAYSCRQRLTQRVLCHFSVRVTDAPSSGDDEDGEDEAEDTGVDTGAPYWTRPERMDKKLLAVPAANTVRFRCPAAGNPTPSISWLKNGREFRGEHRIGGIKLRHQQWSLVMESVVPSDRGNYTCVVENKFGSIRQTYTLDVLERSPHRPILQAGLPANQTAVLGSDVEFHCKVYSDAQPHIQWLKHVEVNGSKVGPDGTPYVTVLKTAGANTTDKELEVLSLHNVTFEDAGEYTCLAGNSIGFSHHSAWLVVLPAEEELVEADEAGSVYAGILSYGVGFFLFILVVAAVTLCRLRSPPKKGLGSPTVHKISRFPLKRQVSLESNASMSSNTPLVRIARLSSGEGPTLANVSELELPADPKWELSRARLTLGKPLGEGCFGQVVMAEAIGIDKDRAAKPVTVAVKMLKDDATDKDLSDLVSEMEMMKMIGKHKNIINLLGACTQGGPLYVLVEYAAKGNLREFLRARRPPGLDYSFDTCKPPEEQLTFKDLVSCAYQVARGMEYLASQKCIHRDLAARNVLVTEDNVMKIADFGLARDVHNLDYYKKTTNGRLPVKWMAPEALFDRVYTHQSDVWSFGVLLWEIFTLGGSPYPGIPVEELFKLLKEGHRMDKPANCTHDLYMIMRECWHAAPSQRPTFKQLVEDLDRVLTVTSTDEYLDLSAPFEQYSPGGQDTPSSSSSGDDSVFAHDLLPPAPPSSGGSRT
Method: as §1

various enzymes [13] = molecular target: various enzymes (Homo sapiens, UniProt Q13233); conditions: compound 1 uM
Method: as §1

various enzymes [14] = molecular target: various enzymes (Homo sapiens, UniProt P00519, H396P); conditions: compound 1 uM
Method: as §1

various enzymes [15] = molecular target: various enzymes (Homo sapiens, UniProt Q99759); conditions: compound 1 uM
Sequence of various enzymes (Homo sapiens, UniProt Q99759) (Q99759 whole entry): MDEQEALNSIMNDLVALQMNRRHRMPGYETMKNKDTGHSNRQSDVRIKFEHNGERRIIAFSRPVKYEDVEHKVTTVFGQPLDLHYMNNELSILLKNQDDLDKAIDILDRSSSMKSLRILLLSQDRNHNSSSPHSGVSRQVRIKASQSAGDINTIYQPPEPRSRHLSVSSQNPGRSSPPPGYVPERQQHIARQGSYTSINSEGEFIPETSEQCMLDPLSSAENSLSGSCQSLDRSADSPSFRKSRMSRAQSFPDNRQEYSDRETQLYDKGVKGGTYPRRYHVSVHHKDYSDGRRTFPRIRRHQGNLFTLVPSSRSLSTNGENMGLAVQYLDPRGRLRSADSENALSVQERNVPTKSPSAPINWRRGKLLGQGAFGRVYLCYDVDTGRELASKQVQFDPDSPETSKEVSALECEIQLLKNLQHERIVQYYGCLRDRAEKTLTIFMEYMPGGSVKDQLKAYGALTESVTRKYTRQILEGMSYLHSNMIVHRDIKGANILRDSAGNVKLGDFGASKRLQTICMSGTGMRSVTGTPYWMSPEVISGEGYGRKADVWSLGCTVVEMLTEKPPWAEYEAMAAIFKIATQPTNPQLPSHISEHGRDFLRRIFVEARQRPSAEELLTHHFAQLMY
Method: as §1

various enzymes [16] = molecular target: various enzymes (Homo sapiens, UniProt Q9H2X6); conditions: compound 1 uM
Method: as §1

various enzymes [17] = molecular target: various enzymes (Homo sapiens, UniProt P23443); conditions: compound 1 uM
Sequence of various enzymes (Homo sapiens, UniProt P23443) (P23443 whole entry): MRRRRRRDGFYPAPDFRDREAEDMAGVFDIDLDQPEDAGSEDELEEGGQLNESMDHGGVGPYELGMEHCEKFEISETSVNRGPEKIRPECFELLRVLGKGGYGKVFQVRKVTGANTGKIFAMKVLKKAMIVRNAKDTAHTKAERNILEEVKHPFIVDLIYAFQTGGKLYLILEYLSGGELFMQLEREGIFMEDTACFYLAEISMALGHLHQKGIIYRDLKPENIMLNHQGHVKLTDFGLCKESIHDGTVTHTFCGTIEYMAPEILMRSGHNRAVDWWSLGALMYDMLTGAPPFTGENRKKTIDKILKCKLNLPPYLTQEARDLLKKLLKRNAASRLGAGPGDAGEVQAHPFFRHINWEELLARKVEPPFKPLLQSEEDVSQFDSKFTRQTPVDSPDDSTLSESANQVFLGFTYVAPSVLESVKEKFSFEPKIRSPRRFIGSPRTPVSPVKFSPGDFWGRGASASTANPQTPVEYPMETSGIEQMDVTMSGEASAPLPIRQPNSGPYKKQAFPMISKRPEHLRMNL
Method: as §1

various enzymes [18] = molecular target: various enzymes (Homo sapiens, UniProt P00533, G719C)
Method: as §1

various enzymes [19] = molecular target: various enzymes (Homo sapiens, UniProt P78362); conditions: compound 1 uM
Method: as §1

various enzymes [20] = molecular target: various enzymes (Homo sapiens, UniProt Q16584); conditions: compound 1 uM
Method: as §1

various enzymes [21] = molecular target: various enzymes (Homo sapiens, UniProt Q8IWQ3); conditions: compound 1 uM
Sequence of various enzymes (Homo sapiens, UniProt Q8IWQ3) (Q8IWQ3 whole entry): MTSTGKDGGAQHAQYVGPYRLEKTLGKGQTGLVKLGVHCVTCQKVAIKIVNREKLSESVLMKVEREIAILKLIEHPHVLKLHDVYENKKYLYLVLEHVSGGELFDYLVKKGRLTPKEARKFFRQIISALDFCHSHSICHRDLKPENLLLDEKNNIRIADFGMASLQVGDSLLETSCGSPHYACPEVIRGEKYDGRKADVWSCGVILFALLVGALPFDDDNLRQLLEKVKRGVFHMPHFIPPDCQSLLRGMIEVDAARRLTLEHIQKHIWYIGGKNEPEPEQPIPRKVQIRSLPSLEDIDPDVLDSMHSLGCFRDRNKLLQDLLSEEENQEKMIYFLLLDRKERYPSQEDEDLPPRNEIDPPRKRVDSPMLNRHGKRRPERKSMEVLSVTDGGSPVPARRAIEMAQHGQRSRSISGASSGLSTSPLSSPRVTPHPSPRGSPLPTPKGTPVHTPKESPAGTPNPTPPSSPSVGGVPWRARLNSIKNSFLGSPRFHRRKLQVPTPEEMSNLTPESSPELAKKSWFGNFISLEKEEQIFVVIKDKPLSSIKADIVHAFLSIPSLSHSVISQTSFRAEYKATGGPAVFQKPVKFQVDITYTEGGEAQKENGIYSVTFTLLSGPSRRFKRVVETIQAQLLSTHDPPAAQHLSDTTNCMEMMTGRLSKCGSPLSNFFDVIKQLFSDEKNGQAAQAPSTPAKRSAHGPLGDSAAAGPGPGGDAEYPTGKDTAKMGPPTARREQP
Method: as §1

various enzymes [22] = molecular target: various enzymes (Homo sapiens, UniProt O96013); conditions: compound 1 uM
Method: as §1

various enzymes [23] = molecular target: various enzymes (Homo sapiens, UniProt P32298); conditions: compound 1 uM
Method: as §1

various enzymes [24] = molecular target: various enzymes (Homo sapiens, UniProt P57058); conditions: compound 1 uM
Method: as §1

various enzymes [25] = molecular target: various enzymes (Homo sapiens, UniProt Q9BWU1); conditions: compound 1 uM
Sequence of various enzymes (Homo sapiens, UniProt Q9BWU1) (Q9BWU1 whole entry): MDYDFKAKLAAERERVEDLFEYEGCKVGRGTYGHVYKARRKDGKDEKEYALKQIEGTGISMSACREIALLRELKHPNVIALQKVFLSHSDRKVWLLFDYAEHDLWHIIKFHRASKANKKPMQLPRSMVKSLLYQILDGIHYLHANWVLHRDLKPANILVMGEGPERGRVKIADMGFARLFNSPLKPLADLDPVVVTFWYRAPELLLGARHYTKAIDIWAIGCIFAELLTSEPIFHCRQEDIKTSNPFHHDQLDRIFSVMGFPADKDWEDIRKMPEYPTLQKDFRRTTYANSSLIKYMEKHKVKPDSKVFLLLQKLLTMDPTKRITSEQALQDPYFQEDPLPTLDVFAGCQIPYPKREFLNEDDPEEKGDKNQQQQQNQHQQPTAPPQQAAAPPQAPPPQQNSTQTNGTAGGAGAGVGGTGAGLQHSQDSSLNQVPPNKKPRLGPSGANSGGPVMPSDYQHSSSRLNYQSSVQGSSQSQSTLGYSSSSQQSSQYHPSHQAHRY
Method: as §1

various enzymes [26] = molecular target: various enzymes (Homo sapiens, UniProt Q13882); conditions: compound 1 uM
Method: as §1

various enzymes [27] = molecular target: various enzymes (Homo sapiens, UniProt P00519); conditions: compound 1 uM
Method: as §1

various enzymes [28] = molecular target: various enzymes (Homo sapiens, UniProt O95382); conditions: compound 1 uM
Method: as §1

various enzymes [29] = molecular target: various enzymes (Homo sapiens, UniProt Q9C098); conditions: compound 1 uM
Method: as §1

various enzymes [30] = molecular target: various enzymes (Homo sapiens, UniProt Q16539); conditions: compound 1 uM
Method: as §1

various enzymes [31] = molecular target: various enzymes (Homo sapiens, UniProt Q8IW41); conditions: compound 1 uM
Method: as §1

various enzymes [32] = molecular target: various enzymes (Homo sapiens, UniProt P08631); conditions: compound 1 uM
Method: as §1

various enzymes [33] = molecular target: various enzymes (Homo sapiens, UniProt Q9Y6M4); conditions: compound 1 uM
Method: as §1

various enzymes [34] = molecular target: various enzymes (Homo sapiens, UniProt P45983); conditions: compound 1 uM
Method: as §1

various enzymes [35] = molecular target: various enzymes (Homo sapiens, UniProt P08069); conditions: compound 1 uM
Method: as §1

various enzymes [36] = molecular target: various enzymes (Homo sapiens, UniProt Q13557); conditions: compound 1 uM
Method: as §1

various enzymes [37] = molecular target: various enzymes (Homo sapiens, UniProt P42679); conditions: compound 1 uM
Sequence of various enzymes (Homo sapiens, UniProt P42679) (P42679 whole entry): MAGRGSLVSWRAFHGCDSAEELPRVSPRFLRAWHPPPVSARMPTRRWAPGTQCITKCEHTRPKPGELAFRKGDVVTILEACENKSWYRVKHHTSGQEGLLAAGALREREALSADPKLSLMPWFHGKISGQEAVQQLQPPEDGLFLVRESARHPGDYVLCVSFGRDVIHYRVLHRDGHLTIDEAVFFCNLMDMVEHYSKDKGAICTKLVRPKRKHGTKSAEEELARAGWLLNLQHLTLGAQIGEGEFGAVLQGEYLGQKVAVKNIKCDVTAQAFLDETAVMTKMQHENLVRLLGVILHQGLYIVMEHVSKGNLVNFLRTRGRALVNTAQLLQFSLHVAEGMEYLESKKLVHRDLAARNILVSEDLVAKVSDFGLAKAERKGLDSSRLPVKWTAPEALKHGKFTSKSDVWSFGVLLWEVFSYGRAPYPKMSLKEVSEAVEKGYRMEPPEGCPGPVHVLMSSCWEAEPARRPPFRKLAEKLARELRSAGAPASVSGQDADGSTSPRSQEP
Method: as §1

Compound: CC(C)N1Cc2nn(C)cc2-c2cnc3[nH]cc(c3c2)-c2cn(nc2C(F)(F)F)CCCC1=O [Compound 45, (Z)-5-isopropyl-31-methyl-13-(trifluoromethyl)-11H,21H,31H-5-aza-2(3,5)-pyrrolo[2,3-b]pyridina-1(4,1),3(4,3)-dipyrazolacyclononaphan-6-one]
- Ambit profiling: GSK3B (various enzymes [1]): 24
- Ambit profiling: FLT3(R834Q) (various enzymes [2]; compound 1 uM): 8.7
- Ambit profiling: FLT3(N841I) (various enzymes [3]): 0
- Ambit profiling: TLK2 (various enzymes [4]): 86
- Ambit profiling: PKMYT1 (various enzymes [5]): 92
- Ambit profiling: CASK (various enzymes [6]): 7.4
- Ambit profiling: AURKA (various enzymes [7]): 0.6
- Ambit profiling: ERBB4 (various enzymes [8]): 55
- Ambit profiling: CSNK1A1L (various enzymes [9]): 100
- Ambit profiling: PRKX (various enzymes [10]): 100
- Ambit profiling: DDR1 (various enzymes [11]): 0.15
- Ambit profiling: FGFR3 (various enzymes [12]): 5.4
- Ambit profiling: MAP3K1 (various enzymes [13]): 95
- Ambit profiling: ABL1(H396P)-nonphosphorylated (various enzymes [14]): 1.9
- Ambit profiling: ABL1(H396P)-phosphorylated (various enzymes [14]): 24
- Ambit profiling: MAP3K3 (various enzymes [15]): 0.35
- Ambit profiling: HIPK2 (various enzymes [16]): 6
- Ambit profiling: S6K1 (various enzymes [17]): 2.5
- Ambit profiling: EGFR(G719C) (various enzymes [18]; compound 1 uM): 59
- Ambit profiling: SRPK2 (various enzymes [19]): 100
- Ambit profiling: MLK3 (various enzymes [20]): 28
- Ambit profiling: BRSK2 (various enzymes [21]): 64
- Ambit profiling: PAK4 (various enzymes [22]): 76
- Ambit profiling: GRK4 (various enzymes [23]): 14
- Ambit profiling: HUNK (various enzymes [24]): 16
- Ambit profiling: CDK11 (various enzymes [25]): 100
- Ambit profiling: BRK (various enzymes [26]): 100
- Ambit profiling: ABL1-nonphosphorylated (various enzymes [27]): 20
- Ambit profiling: ABL1-phosphorylated (various enzymes [27]): 9
- Ambit profiling: ASK2 (various enzymes [28]): 54
- Ambit profiling: DCAMKL3 (various enzymes [29]): 19
- Ambit profiling: p38-alpha (various enzymes [30]): 86
- Ambit profiling: MAPKAPK5 (various enzymes [31]): 100
- Ambit profiling: HCK (various enzymes [32]): 24
- Ambit profiling: CSNK1G3 (various enzymes [33]): 100
- Ambit profiling: JNK1 (various enzymes [34]): 18
- Ambit profiling: IGF1R (various enzymes [35]): 86
- Ambit profiling: CAMK2D (various enzymes [36]): 15
- Ambit profiling: CTK (various enzymes [37]): 70

Compound: COc1c2c(nn1C)CN(C(C)C)C(=O)CCCn1cc(c(C(F)(F)F)n1)-c1c[nH]c3ncc-2cc13 [Compound 50, (Z)-5-isopropyl-35-methoxy-31-methyl-13-(trifluoromethyl)-11H,21H,31H-5-aza-2(3,5)-pyrrolo[2,3-b]pyridina-1(4,1),3(4,3)-dipyrazolacyclononaphan-6-one]
- Ambit profiling: GSK3B (various enzymes [1]): 90
- Ambit profiling: FLT3(R834Q) (various enzymes [2]): 0
- Ambit profiling: FLT3(N841) (various enzymes [3]): 0
- Ambit profiling: TLK2 (various enzymes [4]): 91
- Ambit profiling: PKMYT1 (various enzymes [5]): 86
- Ambit profiling: CASK (various enzymes [6]): 36
- Ambit profiling: AURKA (various enzymes [7]): 15
- Ambit profiling: ERBB4 (various enzymes [8]): 32
- Ambit profiling: CSNK1A1L (various enzymes [9]): 67
- Ambit profiling: PRKX (various enzymes [10]): 100
- Ambit profiling: DDR1 (various enzymes [11]): 0.35
- Ambit profiling: FGFR3 (various enzymes [12]): 7.6
- Ambit profiling: MAP3K1 (various enzymes [13]): 72
- Ambit profiling: ABL1(H396P)-nonphosphorylated (various enzymes [14]): 0.2
- Ambit profiling: ABL1(H396P)-phosphorylated (various enzymes [14]): 3.9
- Ambit profiling: MAP3K3 (various enzymes [15]): 0.3
- Ambit profiling: HIPK2 (various enzymes [16]): 13
- Ambit profiling: S6K1 (various enzymes [17]): 8.6
- Ambit profiling: EGFR(G719C) (various enzymes [18]): 51
- Ambit profiling: SRPK2 (various enzymes [19]): 74
- Ambit profiling: MLK3 (various enzymes [20]): 11
- Ambit profiling: BRSK2 (various enzymes [21]): 72
- Ambit profiling: PAK4 (various enzymes [22]): 91
- Ambit profiling: GRK4 (various enzymes [23]): 38
- Ambit profiling: HUNK (various enzymes [24]): 8
- Ambit profiling: CDK11 (various enzymes [25]): 49
- Ambit profiling: BRK (various enzymes [26]): 80
- Ambit profiling: ABL1-nonphosphorylated (various enzymes [27]): 11
- Ambit profiling: ABL1-phosphorylated (various enzymes [27]): 3.8
- Ambit profiling: ASK2 (various enzymes [28]): 98
- Ambit profiling: DCAMKL3 (various enzymes [29]): 56
- Ambit profiling: p38-alpha (various enzymes [30]): 81
- Ambit profiling: MAPKAPK5 (various enzymes [31]): 100
- Ambit profiling: HCK (various enzymes [32]): 8.1
- Ambit profiling: CSNK1G3 (various enzymes [33]): 79
- Ambit profiling: JNK1 (various enzymes [34]): 4.1
- Ambit profiling: IGF1R (various enzymes [35]): 69
- Ambit profiling: CAMK2D (various enzymes [36]): 20
- Ambit profiling: CTK (various enzymes [37]): 53
